For series [1] the following is noted: currently used blood pressure lowering drugs; ref Yu et al., 2018; cited from earlier work. The text has this:
As per the World Health Organization estimate, CVD accounts for the mortality of more than 17.5 million people every year. Among the important characteristics of CVD, hypertension is an essential target for the prevention and treatment of CVD ([Celermajer et al., 2012]). […] Lately, signific ...

Another series has as its system ACE. The settings on record: 2017, cited from earlier work; for ACE inhibitory activity (in words): peptides containing hydrophobic amino acid (Leu), ref Lee and Hur; for Inhibition mode: ref Lin et al. The text has this: According to report by [Hernández-Ledesma et al. (2011)], most of the ACE inhibiting peptides were short sequences consisting of 2–12 amino acids. In addition, the activity of the ACE-inhibiting peptide was strongly related to the pres ... || The mode of inhibition of ACE-inhibiting peptides was observed generally non-competitive, competitive, and mixed.

The target in series [2] is T1, angiotensin converting enzyme (ACE) (Homo sapiens, UniProt P12821). The experiment in a line: Kinetics of ACE inhibition, Lineweaver-Burk plot. Type of series: biochemical. As to conditions: HHL 0.5, 1, 2, 5 mM, peptide 0, 15, 30 μM. On the procedure:
The kinetic inhibition model of G. biloba peptide was tested using the method of [Lin et al. (2017)]. Briefly, different concentrations of substrate HHL (0.5, 1, 2, and 5 mM) were allowed to react with ACE. The Lineweaver-Burk plot was based on the reciprocal of the reaction rate (1/v) and the substrate concentration (1/[s]). The intercepts on the X- and Y-axes represented the reciprocals of Km and Vmax, respectively.
FIGURE 5 The Lineweaver-Burk plot of the inhibitory effects on ACE activities of peptides. (A) TNLDWY, (B) RADFY, and (C) RVFDGAV. The ACE activities were determined in the absence and presence of different concentrations of the peptides (0, 15, and 30 μM).

Series [3] concerns the target T1, angiotensin converting enzyme (ACE). Kind of series: ACE inhibitory activity, HHL substrate, RP-HPLC of hippuric acid. The format is biochemical. As to conditions: synthetic peptides, purity >95%; HHL 5 mM, borate pH 8.3, 0.3 M NaCl, 37°C, 45 min, ACE 50 mU/mL; RP-HPLC 228 nm; mean, n = 3. The procedure:
This test was performed as per the descriptions are given by the previous report by [O’Loughlin et al. (2014)] with some modifications. Briefly, the substrate hippuryl-histidyl-leucine (HHL, 5 mM) and samples were mixed in 0.1 M Na2[B4O5(OH)4] (pH 8.3) with 0.3 M sodium chloride. Then after, 50 μL of sample and 150 μL of the substrate were added to a centrifuge tube, mixed and allowed to stand in water at 37°C for 5 min. Subsequently, the ACE solution (50 mU/mL) was added and incubated at 37°C for 45 min. The reaction was terminated by adding 250 μL of 1M HCl and the solution was filtered through […] nylon syringe filter before being analyzed by RP-HPLC (Waters, Milford, MA, United States) on an Inertsil ODS-3 (250 × 4.6 mm, 5 μm particle size). The mobile phase comprised of distilled water: acetonitrile = 75:25 (V/V, with 0.1% TFA) with a flow rate of 0.5 mL/min and detection at 228 nm. Captopril was used as a control and the inhibitory activity (%) was determined as below:
ACE inhibitory activity (%)=[(A−B)/A]×100
where A was the peak area of hippuric acid with the sample, B was without the sample.

Setting [4] is: Qula casein and hazelnut peptides, Liu et al., 2018.

We go through eleven compounds from publication PMC6340938, “Three Novel ACE Inhibitory Peptides Isolated From Ginkgo biloba Seeds: Purification, Inhibitory Kinetic and Mechanism” (Frontiers in Pharmacology, 2019).

Where two headings read alike, the source gives them in different places. Where no end group is shown, it is not given here.

T1 sequence (P12821 30-1306, species assumed): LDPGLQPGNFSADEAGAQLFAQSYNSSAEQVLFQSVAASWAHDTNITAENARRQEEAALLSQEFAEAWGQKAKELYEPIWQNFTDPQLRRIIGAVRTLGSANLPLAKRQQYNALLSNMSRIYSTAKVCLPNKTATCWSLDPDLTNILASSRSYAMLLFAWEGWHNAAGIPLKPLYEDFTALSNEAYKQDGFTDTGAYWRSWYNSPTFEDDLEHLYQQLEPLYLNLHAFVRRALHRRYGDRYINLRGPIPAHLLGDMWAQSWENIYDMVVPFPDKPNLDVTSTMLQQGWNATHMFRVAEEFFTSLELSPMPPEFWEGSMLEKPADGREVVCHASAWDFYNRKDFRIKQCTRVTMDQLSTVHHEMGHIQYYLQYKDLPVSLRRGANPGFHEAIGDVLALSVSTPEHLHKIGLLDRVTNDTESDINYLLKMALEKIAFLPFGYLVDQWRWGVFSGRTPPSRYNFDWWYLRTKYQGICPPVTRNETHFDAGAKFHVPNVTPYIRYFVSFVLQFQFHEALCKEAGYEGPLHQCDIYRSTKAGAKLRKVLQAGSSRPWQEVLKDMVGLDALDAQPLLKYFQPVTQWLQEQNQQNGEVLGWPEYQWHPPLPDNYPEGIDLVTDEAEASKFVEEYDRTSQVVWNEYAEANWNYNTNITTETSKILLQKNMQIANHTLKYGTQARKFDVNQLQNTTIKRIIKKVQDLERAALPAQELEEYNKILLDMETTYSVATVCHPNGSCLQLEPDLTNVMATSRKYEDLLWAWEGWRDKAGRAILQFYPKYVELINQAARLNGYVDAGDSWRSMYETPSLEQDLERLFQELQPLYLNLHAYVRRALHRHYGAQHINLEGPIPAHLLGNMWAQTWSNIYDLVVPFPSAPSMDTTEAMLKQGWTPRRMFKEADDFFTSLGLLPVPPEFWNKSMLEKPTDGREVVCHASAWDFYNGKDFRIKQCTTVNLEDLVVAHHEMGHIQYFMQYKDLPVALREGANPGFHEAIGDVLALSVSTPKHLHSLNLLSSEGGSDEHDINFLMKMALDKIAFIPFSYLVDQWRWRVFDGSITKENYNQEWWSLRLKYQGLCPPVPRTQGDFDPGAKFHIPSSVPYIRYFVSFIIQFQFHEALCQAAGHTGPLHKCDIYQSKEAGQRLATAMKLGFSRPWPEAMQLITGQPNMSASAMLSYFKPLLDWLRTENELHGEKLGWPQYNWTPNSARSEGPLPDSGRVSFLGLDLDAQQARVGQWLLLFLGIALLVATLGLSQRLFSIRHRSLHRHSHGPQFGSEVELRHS

For `C[C@H](CS)C(=O)N1CCC[C@H]1C(=O)O` [captopril], in series [1], the Adverse reactions entry was “cough, rash, and headache”.

As to `CCOC(=O)[C@H](CCc1ccccc1)N[C@@H](C)C(=O)N1CCC[C@H]1C(=O)O` [enalapril], the Adverse reactions result in series [1] was “cough, rash, and headache”.

Turning to KPLL, the “ACE inhibitory activity (in words)” value with ACE was “appreciable ACE inhibitory activity”.

As to KYIPIQ [peptide from Qula casein], the Inhibition mode result in the series on ACE (peptides from Qula casein) is given as “competitive inhibition mode”.

Consider LPLPLL [peptide from Qula casein], for which the Inhibition mode entry in the series with ACE (peptides from Qula casein) was “competitive inhibition mode”.

With PFPGPIPN, the Inhibition mode entry in the series with ACE (setting [4]) was “non-competitive”.

In the case of RADFY [RADFY, Arg-Ala-Asp-Phe-Tyr], the “Effect on Km” value in series [2] was “Km increased with the increasing peptide concentration”. Further, in series [3], the IC50 is 1350 µM.

For “RVFDGAV [RVFDGAV, Arg-Val-Phe-Asp-Gly-Ala-Val]”, in series [2], the “Effect on Km” value is recorded as “Km increased with the increasing peptide concentration”. This compound also had a 50% inhibitory concentration (IC50) in series [3] of 1010 µM.

Turning to “TNLDWY [TNLDWY, Thr-Asn-Leu-Asp-Trp-Tyr]”, the “Effect on Km” value in series [2] is given as “Km did not change significantly with peptide concentration”. The compound also had an IC50 in series [3] of 1930 µM.

For VLAQYK, in the series on ACE, the “ACE inhibitory activity (in words)” value is listed as “appreciable ACE inhibitory activity”.

As for YLVR [hazelnut peptide], the Inhibition mode entry with ACE (setting [4]) is “non-competitive”.

The IC50 is the concentration that gives 50% inhibition. The low end stands for greater potency, the high end for weaker potency.
